molecular target: T1, human NaV1.8 (Homo sapiens, UniProt Q9Y5Y9); test: Nav1.8 Qube® Assay (automated 384-well patch-clamp, inhibition of sodium current); type: cell-based; details: human NaV1.8 channels stably expressed in HEK 293 cells, room temperature
T1 construct: expressed in transfected cells
Method in brief: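 Whole-cell voltage clamp at room temperature in HEK293 cells stably expressing NaV1.8; from −90 mV hold, 10 s 1 Hz train of 20 ms pulses to 10 mV with 980 ms repolarization to −67 mV. Peak currents of 1st and 10th pulses give resting and inactivated-state IC50s, Hill fit.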

T1 sequence (Q9Y5Y9 whole entry): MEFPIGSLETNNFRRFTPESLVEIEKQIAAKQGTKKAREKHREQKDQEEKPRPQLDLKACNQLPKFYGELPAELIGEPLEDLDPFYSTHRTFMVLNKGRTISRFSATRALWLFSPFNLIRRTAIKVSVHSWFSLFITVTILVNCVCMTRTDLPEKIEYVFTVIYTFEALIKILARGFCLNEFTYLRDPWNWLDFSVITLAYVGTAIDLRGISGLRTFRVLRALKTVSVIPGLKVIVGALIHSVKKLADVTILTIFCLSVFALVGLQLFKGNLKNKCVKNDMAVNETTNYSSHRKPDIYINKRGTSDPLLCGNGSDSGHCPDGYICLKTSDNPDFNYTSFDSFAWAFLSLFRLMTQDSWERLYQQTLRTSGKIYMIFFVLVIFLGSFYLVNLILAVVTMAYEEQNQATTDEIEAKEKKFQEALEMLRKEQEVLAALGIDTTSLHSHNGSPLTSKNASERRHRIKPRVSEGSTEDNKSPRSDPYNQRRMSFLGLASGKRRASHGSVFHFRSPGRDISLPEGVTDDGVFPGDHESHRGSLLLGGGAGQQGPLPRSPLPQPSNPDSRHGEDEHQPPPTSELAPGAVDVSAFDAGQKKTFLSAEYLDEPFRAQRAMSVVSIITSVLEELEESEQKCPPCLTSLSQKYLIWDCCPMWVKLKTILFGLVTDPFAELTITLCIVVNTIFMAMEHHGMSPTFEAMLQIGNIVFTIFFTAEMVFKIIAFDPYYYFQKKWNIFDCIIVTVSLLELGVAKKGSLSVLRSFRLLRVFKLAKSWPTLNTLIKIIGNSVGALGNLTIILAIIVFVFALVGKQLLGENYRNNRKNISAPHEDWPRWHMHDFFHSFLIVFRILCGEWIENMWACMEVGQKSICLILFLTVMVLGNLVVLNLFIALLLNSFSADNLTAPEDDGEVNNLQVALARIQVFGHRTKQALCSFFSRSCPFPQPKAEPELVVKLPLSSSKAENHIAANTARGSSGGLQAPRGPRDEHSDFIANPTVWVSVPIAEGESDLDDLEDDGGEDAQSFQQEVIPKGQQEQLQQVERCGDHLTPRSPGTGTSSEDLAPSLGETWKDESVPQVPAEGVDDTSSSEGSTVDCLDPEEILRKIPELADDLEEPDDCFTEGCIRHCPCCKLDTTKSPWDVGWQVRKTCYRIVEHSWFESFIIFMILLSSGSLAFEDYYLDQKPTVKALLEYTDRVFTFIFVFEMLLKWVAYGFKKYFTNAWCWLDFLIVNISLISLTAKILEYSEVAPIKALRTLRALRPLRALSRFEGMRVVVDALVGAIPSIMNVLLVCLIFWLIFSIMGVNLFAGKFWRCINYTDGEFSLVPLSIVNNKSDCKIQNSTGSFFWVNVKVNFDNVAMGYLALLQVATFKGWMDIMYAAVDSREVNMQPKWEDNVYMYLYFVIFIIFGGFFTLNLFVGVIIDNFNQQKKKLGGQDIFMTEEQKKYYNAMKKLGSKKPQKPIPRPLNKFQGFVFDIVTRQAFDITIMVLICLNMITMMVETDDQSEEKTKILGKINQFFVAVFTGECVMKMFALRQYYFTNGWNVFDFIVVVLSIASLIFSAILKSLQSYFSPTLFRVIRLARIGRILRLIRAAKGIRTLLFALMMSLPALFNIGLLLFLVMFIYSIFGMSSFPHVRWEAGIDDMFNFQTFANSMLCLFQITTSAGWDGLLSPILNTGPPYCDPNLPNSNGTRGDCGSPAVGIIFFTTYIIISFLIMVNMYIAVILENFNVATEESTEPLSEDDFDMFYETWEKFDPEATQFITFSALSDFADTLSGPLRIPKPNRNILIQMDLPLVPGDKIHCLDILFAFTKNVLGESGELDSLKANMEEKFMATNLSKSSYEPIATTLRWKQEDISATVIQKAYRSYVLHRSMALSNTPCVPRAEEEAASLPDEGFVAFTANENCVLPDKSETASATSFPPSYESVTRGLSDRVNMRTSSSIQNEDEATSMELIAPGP

Row | IC50 [nM] | Compound
1 | 12 | C[C@@H]1C(=O)NCCN1C(=O)NC(c1ccc(F)c(Cl)c1F)[C@H]1C[C@@H]1C(F)(F)F (single isomer, unassigned) [Example 57D]
2 | 9.23 | C[C@@H]1C(=O)NCCN1C(=O)NC(c1ccc(F)c(Cl)c1F)C1CCC(C(F)(F)F)C1 (single isomer, unassigned) [Example 58A, (2R)—N—((R or S)-(3-chloro-2,4-difluorophenyl)(cis-3-(trifluoromethyl)cyclopentyl)methyl)-2-methyl-3-oxopiperazine-1-carboxamide]
3 | 5.65 | C[C@@H]1C(=O)NCCN1C(=O)NC(c1ccc(F)c(Cl)c1F)C1CCC(C(F)(F)F)C1 (single isomer, unassigned) [Example 58B, (2R)—N—((R or S)-(3-chloro-2,4-difluorophenyl)(cis-3-(trifluoromethyl)cyclopentyl)methyl)-2-methyl-3-oxopiperazine-1-carboxamide]
4 | 5.1 | C[C@@H]1C(=O)NCCN1C(=O)NC(c1ccc(F)c(Cl)c1F)C1CCC(C(F)(F)F)C1 (single isomer, unassigned) [Example 58C, (2R)—N—((R or S)-(3-chloro-2,4-difluorophenyl)(trans-3-(trifluoromethyl)cyclopentyl)methyl)-2-methyl-3-oxopiperazine-1-carboxamide]
5 | 6.03 | C[C@@H]1C(=O)NCCN1C(=O)NC(c1ccc(F)c(Cl)c1F)C1CCC(C(F)(F)F)C1 (single isomer, unassigned) [Example 58D, (2R)—N—((R or S)-(3-chloro-2,4-difluorophenyl)(trans-3-(trifluoromethyl)cyclopentyl)methyl)-2-methyl-3-oxopiperazine-1-carboxamide]
6 | 2.6 | [2H]C1([2H])NC(=O)C(C)N(C(=O)N[C@H](c2ccc(F)c(Cl)c2F)[C@H]2C[C@H](C(F)(F)F)C2)C1([2H])[2H] (single isomer, unassigned) [Example 59A, (R or S)—N—((S)-(3-chloro-2,4-difluorophenyl)((trans)-3-(trifluoromethyl)cyclobutyl)methyl)-2-methyl-3-oxopiperazine-5,5,6,6-d4-1-carboxamide]
7 | 44 | [2H]C1([2H])NC(=O)C(C)N(C(=O)N[C@H](c2ccc(F)c(Cl)c2F)[C@H]2C[C@H](C(F)(F)F)C2)C1([2H])[2H] (single isomer, unassigned) [Example 59B, (S or R)—N—((S)-(3-chloro-2,4-difluorophenyl)((trans)-3-(trifluoromethyl)cyclobutyl)methyl)-2-methyl-3-oxopiperazine-5,5,6,6-d4-1-carboxamide]
8 | 10.1 | C[C@@H]1C(=O)NCCN1C(=O)NC(c1ccc(F)c(C(F)(F)F)c1)C1CCC(C(F)(F)F)OC1 (single isomer, unassigned) [Example 60A, (2R)—N-((1(R or S))-(4-fluoro-3-(trifluoromethyl)phenyl)-trans-(6-(trifluoromethyl)tetrahydro-2H-pyran-3-yl)methyl)-2-methyl-3-oxopiperazine-1-carboxamide]
9 | 51.2 | C[C@@H]1C(=O)NCCN1C(=O)NC(c1ccc(F)c(C(F)(F)F)c1)C1CCC(C(F)(F)F)OC1 (single isomer, unassigned) [Example 60B, (2R)—N-((1(R or S))-(4-fluoro-3-(trifluoromethyl)phenyl)-trans-(6-(trifluoromethyl)tetrahydro-2H-pyran-3-yl)methyl)-2-methyl-3-oxopiperazine-1-carboxamide]
10 | 3.2 | C[C@@H]1C(=O)NCCN1C(=O)NC(c1ccc(F)c(Cl)c1F)C1COc2ccccc2C1 (single isomer, unassigned) [Example 62A, (R)—N—((R or S)-(3-chloro-2,4-difluorophenyl)((R or S)-chroman-3-yl)methyl)-2-methyl-3-oxopiperazine-1-carboxamide]
11 | 358 | C[C@@H]1C(=O)NCCN1C(=O)NC(c1ccc(F)c(Cl)c1F)C1COc2ccccc2C1 (single isomer, unassigned) [Example 62B, (R)—N—((R or S)-(3-chloro-2,4-difluorophenyl)((S or R)-chroman-3-yl)methyl)-2-methyl-3-oxopiperazine-1-carboxamide]
12 | 488 | C[C@@H]1C(=O)NCCN1C(=O)NC(c1ccc(F)c(Cl)c1F)C1COc2ccccc2C1 (single isomer, unassigned) [Example 62C, (R)—N—((S or R)-(3-chloro-2,4-difluorophenyl)((R or S)-chroman-3-yl)methyl)-2-methyl-3-oxopiperazine-1-carboxamide]
13 | 0.8 | C[C@@H]1C(=O)NCCN1C(=O)NC(c1ccc(F)c(Cl)c1F)C1COc2ccccc2C1 (single isomer, unassigned) [Example 62D, (R)—N—((S or R)-(3-chloro-2,4-difluorophenyl)((S or R)-chroman-3-yl)methyl)-2-methyl-3-oxopiperazine-1-carboxamide]
14 | 1.8 | O=C1NCCN(C(=O)N[C@H](c2ccc(F)c(Cl)c2F)[C@H]2C[C@H](C(F)(F)F)C2)C1C(F)(F)F (single isomer, unassigned) [Example 63A, (R or S)—N—((S)-(3-chloro-2,4-difluorophenyl)((trans)-3-(trifluoromethyl)cyclobutyl)methyl)-3-oxo-2-(trifluoromethyl)piperazine-1-carboxamide]
15 | 9.1 | O=C1NCCN(C(=O)N[C@H](c2ccc(F)c(Cl)c2F)[C@H]2C[C@H](C(F)(F)F)C2)C1C(F)(F)F (single isomer, unassigned) [Example 63B, (S or R)—N—((S)-(3-chloro-2,4-difluorophenyl)((trans)-3-(trifluoromethyl)cyclobutyl)methyl)-3-oxo-2-(trifluoromethyl)piperazine-1-carboxamide]
16 | 191 | C[C@@H]1C(=O)NCCN1C(=O)N[C@@H](c1ccc(F)c(Cl)c1F)[C@H]1C[C@H](C(F)(F)F)C1 [Example 20B, (R)—N—((R)-(3-chloro-2,4-difluorophenyl)(trans-3-(trifluoromethyl)cyclobutyl)methyl)-2-methyl-3-oxopiperazine-1-carboxamide]
17 | 6.82 | O=C1CN(C(=O)N[C@H](c2ccc(F)c(Cl)c2F)[C@H]2C[C@H](C(F)(F)F)C2)CCN1 [Example 26, N—((S)-(3-chloro-2,4-difluorophenyl)(trans-3-(trifluoromethyl)cyclobutyl)methyl)-3-oxopiperazine-1-carboxamide]
18 | 0.7 | [2H][C@@]1(CF)C(=O)NCCN1C(=O)N[C@H](c1ccc(F)c(Cl)c1F)[C@H]1C[C@H](C(F)(F)F)C1 [Example 61, (S)—N—((S)-(3-chloro-2,4-difluorophenyl)((trans)-3-(trifluoromethyl)cyclobutyl)methyl)-2-(fluoromethyl)-3-oxopiperazine-2-d-1-carboxamide]
19 | 3.2 | O=C1NCCN(C(=O)N[C@H](c2ccc(F)c(Cl)c2F)[C@H]2C[C@H](C(F)(F)F)C2)[C@@H]1CO [Example 64, (R)—N—((S)-(3-chloro-2,4-difluorophenyl)((trans)-3-(trifluoromethyl)cyclobutyl)methyl)-2-(hydroxymethyl)-3-oxopiperazine-1-carboxamide]

From US20220380338A1, “CYCLOALKYL 3-OXOPIPERAZINE CARBOXAMIDES AND CYCLOHETEROALKYL 3-OXOPIPERAZINE CARBOXAMIDES AS NAV1.8 INHIBITORS” (Merck Sharp & Dohme LLC, priority 2021, published 2022)
